Data on 1 compound can be found in ChEMBL document CHEMBL4145665, “Structure-Activity Relationship of Novel and Selective Biaryl-Chroman GPR40 AgoPAMs” (ACS Med Chem Lett, 2018).

Structures are written as SMILES.

A short description of data set [1]: Oral bioavailability in Wistar-Han rat at 2 mg/kg administered as single dose. It counts as ADME, organism-based. As to conditions: in vivo.
Data set [2] can be described thus: AUC (0 to 24 hrs) in Wistar rat at 750 mg/kg administered once daily for 4 days. It counts as ADME, organism-based. On the set-up: dose 750 mg/kg, time < 24 hr. As to conditions: in vivo.
The test system of data set [3] is Rattus norvegicus. In words: Toxicity in Wistar rat assessed as decrease in body weight at 750 mg/kg administered once daily for 4 days relative to control. On the set-up: scale not given: the % may be the effect or the level left. Format: organism-based. As to conditions: in vivo, 96 h.
Data set [4] deals with Rattus norvegicus. In words: Antidiabetic activity in Goto Kakizaki rats assessed as plasma concentration required for reduction in blood glucose excursion at 3 mg/kg, po pretreated for 1 hr followed by dextrose challenge measured 3 hrs post dose by OGTT. It counts as functional, organism-based.
For data set [5], the system named is Rattus norvegicus. In words: Antidiabetic activity in Goto Kakizaki rats assessed as plasma concentration required for reduction in blood glucose excursion at 30 mg/kg, po pretreated for 1 hr followed by dextrose challenge measured 3 hrs post dose by OGTT. It counts as functional, organism-based.
Data set [6] concerns Rattus norvegicus. In words: Toxicity in Wistar rat assessed as increase in liver weight at 200 to 750 mg/kg administered once daily for 4 days. Format: organism-based. As to conditions: in vivo, 96 h.
Data set [7] deals with Rattus norvegicus. In words: Antidiabetic activity in Goto Kakizaki rats assessed as plasma concentration required for reduction in blood glucose excursion at 10 mg/kg, po pretreated for 1 hr followed by dextrose challenge measured 3 hrs post dose by OGTT. It counts as functional, organism-based.
For data set [8], the target named is Free fatty acid receptor 1 (Homo sapiens, UniProt O14842). In words: Agonist activity at recombinant human GPR40 expressed in HEK293 cells assessed as increase in IP1 accumulation measured after 60 mins by HTRF assay relative to AM-1638. It counts as functional, cell-based.
Data set [9] relates to Rattus norvegicus. In words: Antidiabetic activity in Goto Kakizaki rats assessed as inhibition of blood glucose AUC at 3 mg/kg, po pretreated for 1 hr followed by dextrose challenge measured after 20 to 60 mins by OGTT method relative to control. Format: functional.
Data set [10] in a line: Intrinsic clearance in Beagle dog hepatocytes. Format: ADME, cell-based, Canis lupus familiaris, Hepatocyte. As to conditions: read-out: CLH.
Data set [11] deals with Rattus norvegicus. In words: Antidiabetic activity in Goto Kakizaki rats assessed as inhibition of blood glucose AUC at 30 mg/kg, po pretreated for 1 hr followed by dextrose challenge measured after 20 to 60 mins by OGTT method relative to control. Format: functional.
A short description of data set [12]: Effective half life in Beagle dog at 1 mg/kg, iv or 2 mg/kg, po administered as single dose. It counts as ADME, organism-based, Canis lupus familiaris. As to conditions: in vivo, read-out: t1/2eff (converted).
The nature of data set [13]: Lipophilicity, log D of the compound at pH 7 at 100 uM by HPLC method. As to conditions: buffer. Format: physicochemical.
The target of another data set is Bile salt export pump (Homo sapiens, UniProt O95342). In words: Inhibition of human BSEP expressed in baculovirus infected Sf9 insect cell membrane vesicles assessed as reduction in ATP-dependent [3H]-taurocholic acid uptake. It counts as ADME.
In data set [14] the test system is Rattus norvegicus. In words: Antidiabetic activity in Goto Kakizaki rats assessed as inhibition of blood glucose AUC at 10 mg/kg, po pretreated for 1 hr followed by dextrose challenge measured after 20 to 60 mins by OGTT method relative to control. It counts as functional.
Data set [15] deals with Rattus norvegicus. In words: Antidiabetic activity in Goto Kakizaki rats assessed as inhibition of blood glucose AUC at 1 mg/kg, po pretreated for 1 hr followed by dextrose challenge measured after 20 to 60 mins by OGTT method relative to control. It counts as functional.

Free fatty acid receptor 1, sequence (O14842 whole entry): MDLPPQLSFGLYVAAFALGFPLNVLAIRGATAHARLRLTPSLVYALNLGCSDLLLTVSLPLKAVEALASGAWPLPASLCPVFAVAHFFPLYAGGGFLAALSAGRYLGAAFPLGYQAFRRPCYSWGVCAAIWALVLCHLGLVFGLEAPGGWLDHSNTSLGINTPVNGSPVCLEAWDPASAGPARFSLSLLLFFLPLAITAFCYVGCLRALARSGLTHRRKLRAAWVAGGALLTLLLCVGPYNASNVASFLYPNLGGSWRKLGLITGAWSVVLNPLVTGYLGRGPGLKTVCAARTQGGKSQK
Bile salt export pump, sequence (O95342 whole entry): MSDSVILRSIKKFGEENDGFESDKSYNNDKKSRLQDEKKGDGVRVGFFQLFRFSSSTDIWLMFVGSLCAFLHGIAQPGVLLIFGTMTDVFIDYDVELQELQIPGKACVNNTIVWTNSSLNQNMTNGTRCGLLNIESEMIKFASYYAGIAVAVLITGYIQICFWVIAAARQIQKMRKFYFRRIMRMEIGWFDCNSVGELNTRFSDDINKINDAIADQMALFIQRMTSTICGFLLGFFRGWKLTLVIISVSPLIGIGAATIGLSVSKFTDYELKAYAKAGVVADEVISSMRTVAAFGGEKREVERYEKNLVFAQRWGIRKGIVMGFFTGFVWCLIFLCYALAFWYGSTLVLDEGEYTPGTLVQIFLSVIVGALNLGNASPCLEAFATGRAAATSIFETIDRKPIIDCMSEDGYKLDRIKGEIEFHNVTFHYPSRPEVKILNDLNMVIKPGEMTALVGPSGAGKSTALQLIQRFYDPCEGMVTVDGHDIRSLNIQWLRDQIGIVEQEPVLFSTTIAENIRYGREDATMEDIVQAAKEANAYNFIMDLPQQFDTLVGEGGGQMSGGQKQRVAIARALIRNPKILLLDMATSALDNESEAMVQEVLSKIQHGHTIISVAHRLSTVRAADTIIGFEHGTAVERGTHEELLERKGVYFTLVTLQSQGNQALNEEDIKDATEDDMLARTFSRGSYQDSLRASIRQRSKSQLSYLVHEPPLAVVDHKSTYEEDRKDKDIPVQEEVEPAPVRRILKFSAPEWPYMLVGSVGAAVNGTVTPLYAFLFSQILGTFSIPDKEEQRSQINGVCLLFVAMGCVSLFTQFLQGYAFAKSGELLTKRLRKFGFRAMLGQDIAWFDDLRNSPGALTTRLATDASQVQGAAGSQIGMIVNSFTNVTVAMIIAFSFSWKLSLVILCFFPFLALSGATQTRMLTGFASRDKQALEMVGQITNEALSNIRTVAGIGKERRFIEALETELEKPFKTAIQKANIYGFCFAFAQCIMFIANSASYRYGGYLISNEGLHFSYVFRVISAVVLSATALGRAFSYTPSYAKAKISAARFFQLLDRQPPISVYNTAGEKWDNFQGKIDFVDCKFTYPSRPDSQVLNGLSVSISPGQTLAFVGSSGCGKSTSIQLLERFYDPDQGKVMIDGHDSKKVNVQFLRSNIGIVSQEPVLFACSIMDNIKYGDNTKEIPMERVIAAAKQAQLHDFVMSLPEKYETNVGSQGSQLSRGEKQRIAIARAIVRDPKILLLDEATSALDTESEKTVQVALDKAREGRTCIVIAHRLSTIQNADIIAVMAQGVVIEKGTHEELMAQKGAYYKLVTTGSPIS

In [1], `COc1cc(-c2ccc([C@@H]3CCc4ccc([C@H](C5CC5)[C@H](C)C(=O)[O-])cc4O3)c(F)c2)ccn1.[Na+]` came in with a bioavailability of 81%. In addition, the AUC at 24 h in data set [2] came to 7350 µM·h. The Activity in the data set on Rattus norvegicus [3] was 90%; in the data set with Rattus norvegicus [6] it was “Non-Toxic”. Besides, the Cp in the data set on Rattus norvegicus [4] stood at 2.2 µM; in the data set with Rattus norvegicus [5], 7.7 µM; in the data set on Rattus norvegicus [7], 4.9 µM. Further, the max activation in data set [8] was above 179%. Further, the inhibition in vivo at 3 mg/kg in the data set with Rattus norvegicus [9] turned out to be 108%. In addition, the CLint scaled in [10] stood at 126 mL/min/kg. Further, in the data set on Rattus norvegicus [11], the inhibition in vivo at 30 mg/kg amounted to 114%. The half-life in data set [12] is 6.9 h. Besides, the logD at 100 µM in [13] was found to be 2.51. Moreover, the IC50 at Bile salt export pump came to 3.5 µM. Besides, the inhibition in vivo at 10 mg/kg in the data set with Rattus norvegicus [14] was 118%. For the same compound, the inhibition in vivo at 1 mg/kg in the data set with Rattus norvegicus [15] came out at 95%.
